Series [1] deals with SARS‐CoV‐2. To be noted: oral administration; cited from earlier work.
Series [2] is described as follows: Overall safety and tolerability. The series is classed as in vivo, human. The conditions noted are these: for Safety and tolerability (overall): SAD, MAD and supratherapeutic cohorts, healthy participants.
For series [3] the following is noted: 500 mg single dose, fasted, no ritonavir; individual values (N2=2).
The nature of series [4]: clinical. To be noted: human, in vivo.
Series [5] relates to cytochrome P450 3A4 (CYP3A4). The conditions noted are these: cited from earlier work.
Series [6] has as its system SARS‐CoV‐2 viral replication. The conditions noted are these: in vitro EC90 adjusted for plasma protein binding; cited from earlier work.

This is an account of results in paper PMC9087011 (Clinical Pharmacology and Therapeutics, 2022).

What is called Tmax is the time at which the peak concentration occurs. As usually defined, the Cmax is the maximum level reached in the sampled fluid or tissue. Regarding `CC(C)(C)[C@H](NC(=O)C(F)(F)F)C(=O)N1C[C@H]2[C@@H]([C@H]1C(=O)N[C@H](C#N)C[C@@H]1CCNC1=O)C2(C)C` [Nirmatrelvir], in series [1], the “Effect on pulmonary viral titers” value is listed as “dose‐dependent reduction of pulmonary viral titers”. In addition, the “Safety and tolerability (overall)” value is “safe and well‐tolerated” in series [2]; “no safety concerns were identified” in series [2] (listed as nirmatrelvir). The “Changes in laboratory values (≥ grade 2), vital sign or ECG measurements” value in series [2] (with or without ritonavir) is given as “No clinically meaningful changes”. Moreover, in series [3], the AUCinf is recorded as 5,450 ng hour/mL. Besides, in series [3], the “t ½” value came out at 25.6 h. Also, the time of peak concentration (Tmax) in series [4] is 1 h; in series [4] (150 mg), 0.634 h; in series [4] (500 mg) it was 1 h. Also, the Cmax amounted to 668 ng/mL in series [4] (150 mg) and 674 ng/mL in series [4] (500 mg). The Metabolism result in series [5] is “primarily metabolized by cytochrome P450 3A4 (CYP3A4)”. Besides, the “total plasma EC90 (90% inhibition of SARS‐CoV‐2 viral replication)” value in series [6] was 0.292 µg/mL.
